Measurements as given in patent publication US9113629B2, “4-amino-6-(4-substituted-phenyl)-picolinates and 6-amino-2-(4-substituted-phenyl)-pyrimidine-4-carboxylates and their use as herbicides” (DOW AGROSCIENCES LLC, priority 2013, dated 2015).
Like-named read-outs stand apart in the source and are kept apart here.

Legend:
[1] = system: Key Broadleaf Weed and Crop Species; assay: Post-emergent Test II herbicidal activity (Table 5); type: in vivo; conditions: post-emergence, 336 h, 14 days after application; for pest or weed control at 70 g/ha: application rate 70 g ai/ha; for pest or weed control at 140 g/ha: application rate 140 g ai/ha
Procedure, shortened: (§1)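 Plants grown in Metro-Mix 360 (pH 6.0–6.8) in a greenhouse (~15 h photoperiod, 23–29 °C day) to first or second true leaf stage, then sprayed with compound in acetone/DMSO/aqueous crop-oil-surfactant carrier at 187 L/ha by track sprayer. Injury visually scored 0–100% versus untreated plants after 14 d.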

[2] = system: Key Grass and Sedge Weeds as well as Grass Crops; assay: Post-emergent Test II herbicidal activity (Table 6); type: in vivo; conditions: post-emergence, 336 h; for pest or weed control at 70 g/ha: 70 g ai/ha; for pest or weed control at 140 g/ha: 140 g ai/ha
Procedure, shortened: as §1

[3] = ABUTH: velvetleaf (Abutilon theophrasti), read-out: Visual Growth Reduction (%) 14 Days After Application, ABUTH
[4] = AMARE: redroot pigweed (Amaranthus retroflexus), read-out: Visual Growth Reduction (%) 14 Days After Application, AMARE
[5] = BRSNN: oilseed-rape, canola (Brassica napus), read-out: Visual Growth Reduction (%) 14 Days After Application, BRSNN
[6] = CHEAL: lambsquarters (Chenopodium album), read-out: Visual Growth Reduction (%) 14 Days After Application, CHEAL
[7] = EPHHL: wild poinsettia (Euphorbia heterophylla), read-out: Visual Growth Reduction (%) 14 Days After Application, EPHHL
[8] = HELAN: sunflower (Helianthus annuus), read-out: Visual Growth Reduction (%) 14 Days After Application, HELAN
[9] = VIOTR: wild pansy (Viola tricolor), read-out: Visual Growth Reduction (%) 14 Days After Application, VIOTR
[10] = CYPES: yellow nutsedge (Cyperus esculentus), read-out: Visual Growth Reduction (%) 14 Days After Application, CYPES
[11] = DIGSA: crabgrass (Digitaria sanguinalis), read-out: Visual Growth Reduction (%) 14 Days After Application, DIGSA
[12] = ECHCG: barnyardgrass (Echinochloa crus-galli), read-out: Visual Growth Reduction (%) 14 Days After Application, ECHCG
[13] = ORYSA: rice (Oryza sativa), crop, read-out: Visual Growth Reduction (%) 14 Days After Application, ORYSA
[14] = SETFA: giant foxtail (Setaria faberi), read-out: Visual Growth Reduction (%) 14 Days After Application, SETFA
[15] = SORVU: grain sorghum (Sorghum vulgare), read-out: Visual Growth Reduction (%) 14 Days After Application, SORVU
[16] = TRZSS (wheat, Triticum aestivum), crop, read-out: Visual Growth Reduction (%) 14 Days After Application, TRZSS
[17] = ZEAMX: maize, corn (Zea mays), crop, read-out: Visual Growth Reduction (%) 14 Days After Application, ZEAMX

COC(=O)c1nc(-c2ccc(Br)c(F)c2F)cc(N)c1Cl [Compound 114, methyl 4-amino-6-(4-bromo-2,3-difluorophenyl)-3-chloropicolinate]
pest or weed control at 70 g/ha [1, 3]: 95 to 100% | pest or weed control at 140 g/ha [1, 3]: 95 to 100% | pest or weed control at 70 g/ha [1, 4]: 95 to 100% | pest or weed control at 140 g/ha [1, 4]: 95 to 100% | pest or weed control at 70 g/ha [1, 5]: 85 to 94% | pest or weed control at 140 g/ha [1, 5]: 95 to 100% | pest or weed control at 70 g/ha [1, 6]: 95 to 100% | pest or weed control at 140 g/ha [1, 6]: 95 to 100% | pest or weed control at 70 g/ha [1, 7]: 95 to 100% | pest or weed control at 140 g/ha [1, 7]: 95 to 100% | pest or weed control at 70 g/ha [1, 8]: 95 to 100% | pest or weed control at 140 g/ha [1, 8]: 95 to 100% | pest or weed control at 70 g/ha [1, 9]: 95 to 100% | pest or weed control at 140 g/ha [1, 9]: 95 to 100% | pest or weed control at 70 g/ha [2, 10]: 95 to 100% | pest or weed control at 140 g/ha [2, 10]: 95 to 100% | pest or weed control at 70 g/ha [2, 11]: 60 to 74% | pest or weed control at 140 g/ha [2, 11]: 60 to 74% | pest or weed control at 70 g/ha [2, 12]: 95 to 100% | pest or weed control at 140 g/ha [2, 12]: 95 to 100% | pest or weed control at 70 g/ha [2, 13]: 0 to 29% | pest or weed control at 140 g/ha [2, 13]: 0 to 29% | pest or weed control at 70 g/ha [2, 14]: 60 to 74% | pest or weed control at 140 g/ha [2, 14]: 75 to 84% | pest or weed control at 70 g/ha [2, 15]: 95 to 100% | pest or weed control at 140 g/ha [2, 15]: 95 to 100% | pest or weed control at 70 g/ha [2, 16]: 30 to 44% | pest or weed control at 140 g/ha [2, 16]: 45 to 59% | pest or weed control at 70 g/ha [2, 17]: 85 to 94% | pest or weed control at 140 g/ha [2, 17]: 85 to 94%
